Data from patent US20090068258A1, “Caveolin-mimetic peptide for prevention and treatment of pulmonary hypertension and right ventricular hypertrophy” (priority 2007, published 2009).
Residues, ends and D or L forms follow the SMILES beside them. *: point of attachment. Biotin = O=C1N[C@H]2[C@H](CS[C@H]2CCCCC(=O)*)N1

Tests used:
[1] = test system: PY-STAT3; assay: Immunoblot analysis of lung PY-STAT3 in MCT rats; assay type: in vivo, Sprague-Dawley rats
Procedure: (§1) Male Sprague-Dawley rats (Charles River, Wilmington, Mass.) weighing between 250-300 g received a single intraperitoneal (ip) injection of either 0.5 ml 0.9% NaCl or 0.5 ml 60 mg/kg MCT. Thirty minutes later, rats were randomly assigned to receive a daily ip injection of either 0.5 ml 0.9% NaCl, 0.5 ml AP (2.5 mg/kg/d) or 0.5 ml AP-Cav (2.5 mg/kg/d) for 2 weeks.
(§2) Immunoblot Analysis. Lung samples from Control (n=17), Control+AP-Cav (n=10), MCT (n=25), MCT+AP (n=19), and MCT+AP-Cav (n=24) groups were homogenized in a RIPA lysis buffer containing protease and phosphatase inhibitors. Proteins were then separated by SDS-PAGE (12% acrylamide) and transferred to nitrocellulose membranes. The membranes were placed in blocking solution for 30 min. Afterwards, the membranes were washed and incubated with a given primary antibody for 1 hour (Cav-1, -2 and β-actin) or 3 hours (eNOS, STAT3, PY-STAT3, cyclin D1, and cyclin D3). […] Western blots for Cav-1, Cav-2, eNOS, PY-STAT3, cyclin D1 and cyclin D3 were subsequently quantitated using the NIH Image J software (using the mean gray value for each band).
(§3) Statistical Analysis. Hemodynamic and morphometric variables as well as the mean gray value of each western blot are expressed as mean±S.E.M. Differences between the 5 groups were evaluated by ANOVA, followed by Tukey's multiple-group comparisons test. […]

[2] = test system: Cav-2; assay: Dual-label immunofluorescence analysis of Cav-2 in pulmonary arteries of MCT rats; assay type: in vivo, Sprague-Dawley rats
Procedure: as §1
(§4) Immunofluorescence Analysis. As mentioned above, the left lung of Control (n=17), Control+AP-Cav (n=10), MCT (n=25), MCT+AP (n=19), and MCT+AP-Cav (n=24) rats was dissected and perfused-fixed. Transverse sections were obtained and embedded with paraffin. Sections of 10 μm were cut and stained with hematoxylin and eosin (H&E).
(§5) Paraffin from 10 μm-thick sections was removed by immersion in xylene. These sections were then rehydrated with graded alcohol to water and blocked overnight. The sections were subsequently incubated with a given primary antibody for three hours. FITC- and TRITC-conjugated secondary antibodies were then added to the sections after a 15 min wash in PBS. After 1 hr of incubation with the secondary antibodies, the sections were washed in PBS and mounted using Prolong Gold antifade reagent (Molecular Probes, Carlsbad, Calif.).

[3] = test system: Control rats; assay: Hemodynamic and morphometric variables in Control rats (0.9% NaCl instead of MCT); assay type: in vivo, Sprague-Dawley rats
Procedure: as §1
(§6) At two weeks, rats were anesthetized with xylazine (10 mg/kg)-ketamine (50 mg/kg) followed by 2000 U heparin (Sigma-Aldrich). The right jugular vein and carotid artery were then isolated and incised, and millar catheters (SPR-249, Millar Instruments, Houston, Tex.) were advanced into the right and left ventricles (RV and LV) for hemodynamic measurements. The RV and LV pressures were recorded with the Ponemah P3-Data acquisition system (LDS Test and Measurement, Middleton, Wis.).
(§7) Afterwards, the lower lobe of the right lung and the heart were dissected and weighed to respectively determine pulmonary edema and RV hypertrophy, as previously described^11. The remaining lobes of the right lung were submerged in liquid nitrogen and frozen at −80° C. The left pulmonary artery was then cannulated and perfused with 4% paraformaldehyde (PFA) for 2 min. This was followed by perfusion of the airways with 4% PFA for 2 min. The left lung was then immersed in 4% PFA for 24 hours.
(§8) Statistical Analysis. Hemodynamic and morphometric variables as well as the mean gray value of each western blot are expressed as mean±S.E.M. Differences between the 5 groups were evaluated by ANOVA, followed by Tukey's multiple-group comparisons test. Statistical significance was assumed at p<0.05.

[4] = test system: rats with MCT-induced PH; assay: Hemodynamic and morphometric variables in rats with MCT-induced PH; assay type: in vivo, Sprague-Dawley rats; details: MCT 60 mg/kg ip rats, peptide 2.5 mg/kg/d ip for 2 weeks; for RV/LV+septum weight ratio: Control rats 25.3±0.5, MCT rats 31.1±0.6; for RV systolic pressures: Control rats 26.0±0.9, MCT rats 40.2±1.5; for BW (body weight) / CVP (central venous pressure) / Dry lung weight/BW / Dry/wet lung weight / HR (heart rate) / LV(+)dP/dt / LV(−)dP/dt / LV/BW / LVEDP (LV-end diastolic pressure) / MAP (mean arterial pressure) / RV(+)dP/dt / RV(−)dP/dt / RV/BW / RVEDP (RV-end diastolic pressure) / Wet lung weight/BW: mean±S.E.M.
Procedure: as §1, §6, §7, §8

[5] = test system: pulmonary arteries of MCT rats; assay: Lung vascular morphometry (percent medial wall thickness) in MCT rats; assay type: in vivo, Sprague-Dawley rats
Procedure: as §1
(§9) Lung Vascular Morphometry. H&E sections of the left lung (n=10 for each groups) were microscopically assessed for the medial wall thickness of pulmonary arteries. Measurements of the luminal diameter and the medial thickness on either side were obtained using the Image J software. Measurements were made on 30 muscular arteries (<50 μm, 51-100 μm, and 100-150 μm of external diameter) per lung section. The medial wall thickness was then related to the external diameter and expressed as percent wall thickness, as previously described^20.
as §8

[6] = test system: pulmonary arteries of Control rats; assay: Lung vascular morphometry (percent medial wall thickness) in Control rats; assay type: in vivo, Sprague-Dawley rats; details: data not shown
Procedure: as §1, §9, §8

[7] = test system: Cav-1; assay: Immunoblot analysis of lung Cav-1 protein levels in MCT rats; assay type: in vivo, Sprague-Dawley rats
Procedure: as §1, §2, §3

[8] = test system: Cav-1; assay: Dual-label immunofluorescence analysis of Cav-1 in pulmonary arteries of MCT rats; assay type: in vivo, Sprague-Dawley rats
Procedure: as §1, §4, §5

[9] = test system: cyclin D3; assay: Immunoblot analysis of lung cyclin D3 in MCT rats; assay type: in vivo, Sprague-Dawley rats
Procedure: as §1, §2, §3

[10] = test system: mice; details: in vivo delivery, previous reports (refs 17;18); cited from earlier work
[11] = test system: cyclin D1; assay: Immunoblot analysis of lung cyclin D1 in MCT rats; assay type: in vivo, Sprague-Dawley rats
Procedure: as §1, §2, §3

[12] = test system: Cav-2; assay: Immunoblot analysis of lung Cav-2 protein levels in MCT rats; assay type: in vivo, Sprague-Dawley rats
Procedure: as §1, §2, §3

[13] = Control rats (no MCT), peptide 2.5 mg/kg/d ip for 2 weeks, mean±S.E.M.

Compound: (biotin)-RQPKTWFPNRRKPWKK-DGIWKASFTTFTVTKYWFYR (SEQ ID NO:10)—(OH) [AP-Cav]
- STAT3 signaling cascade (PY-STAT3) in the lungs (effect in words) ([1]; 2.5 mg/kg/d ip for 2 weeks): prevented the hyper-activation
- Cav-2 expression in pulmonary arteries [2]: prevented
- BW (body weight) [3, 13]: 407 ± 12 g
- CVP (central venous pressure) [3, 13]: 3.1 ± 0.1 mmHg
- Dry lung weight/BW [3, 13]: 0.019 ± 0.000%
- Dry/wet lung weight [3, 13]: 20.8 ± 0.1%
- HR (heart rate) [3, 13]: 270 ± 6 beats/min
- LV(+)dP/dt [3, 13]: 6216 ± 446 mmHg/s
- LV(−)dP/dt [3, 13]: 4614 ± 320 mmHg/s
- LV/BW [3, 13]: 0.194 ± 0.005%
- LVEDP (LV-end diastolic pressure) [3, 13]: 3.0 ± 0.3 mmHg
- MAP (mean arterial pressure) [3, 13]: 79.4 ± 3.4 mmHg
- RV(+)dP/dt [3, 13]: 1435 ± 60 mmHg/s
- RV(−)dP/dt [3, 13]: 988 ± 46 mmHg/s
- RV/BW [3, 13]: 0.050 ± 0.001%
- RVEDP (RV-end diastolic pressure) [3, 13]: 2.8 ± 0.2 mmHg
- Wet lung weight/BW [3, 13]: 0.091 ± 0.001%
- effect on hemodynamic and morphometric variables ([3]; Control rats, compared to Control group receiving 0.9% NaCl alone): did not affect
- RV/LV+septum weight ratio [4]: 24.6±0.5%
- RV systolic pressures [4]: 30.1±1.3 mmHg
- BW (body weight) [4]: 371 ± 9 g
- CVP (central venous pressure) [4]: 3.2 ± 0.2 mmHg
- Dry lung weight/BW [4]: 0.028 ± 0.001 %
- Dry/wet lung weight [4]: 20.7 ± 0.3%
- HR (heart rate) [4]: 261 ± 12 beats/min
- LV(+)dP/dt [4]: 5766 ± 335 mmHg/s
- LV(−)dP/dt [4]: 3891 ± 309 mmHg/s
- LV/BW [4]: 0.200 ± 0.003%
- LVEDP (LV-end diastolic pressure) [4]: 2.7 ± 0.3 mmHg
- MAP (mean arterial pressure) [4]: 82.6 ± 2.9 mmHg
- RV(+)dP/dt [4]: 1489 ± 18 mmHg/s
- RV(−)dP/dt [4]: 1107 ± 61 mmHg/s
- RV/BW [4]: 0.049 ± 0.001 %
- RVEDP (RV-end diastolic pressure) [4]: 3.0 ± 0.2 mmHg
- Wet lung weight/BW [4]: 0.132 ± 0.004 %
- percent medial wall thickness of pulmonary arteries (effect in words) ([5]; 2.5 mg/kg/d ip for 2 weeks): significantly reduced
- percent medial wall thickness of pulmonary arteries (effect in words) [6]: had no effect
- pulmonary Cav-1 protein levels (effect in words) ([7]; 2.5 mg/kg/d ip for 2 weeks): significantly prevented the reduction
- Cav-1 expression in pulmonary arteries [8]: prevented
- pulmonary cyclin D3 expression (effect in words) ([9]; 2.5 mg/kg/d ip for 2 weeks): prevented the upregulation
- systemic blood pressure, blood flow, and heart rate [10]: had no effect
- pulmonary cyclin D1 expression (effect in words) ([11]; 2.5 mg/kg/d ip for 2 weeks): prevented the upregulation
- pulmonary Cav-2 protein levels (effect in words) ([12]; 2.5 mg/kg/d ip for 2 weeks): significantly prevented the reduction

Compound: CC[C@H](C)[C@H](NC(=O)[C@H](CCCCN)NC(=O)[C@@H]1CCCN1C(=O)[C@H](CCC(N)=O)NC(=O)[C@H](CCCNC(=N)N)NC(=O)CCCC[C@@H]1SC[C@@H]2NC(=O)N[C@@H]21)C(=O)N[C@@H](Cc1c[nH]c2ccccc12)C(=O)N[C@@H](Cc1ccccc1)C(=O)N1CCC[C@H]1C(=O)N[C@@H](CC(N)=O)C(=O)N[C@@H](CCCNC(=N)N)C(=O)N[C@@H](CCCNC(=N)N)C(=O)N[C@@H](CCCCN)C(=O)N1CCC[C@H]1C(=O)N[C@@H](Cc1c[nH]c2ccccc12)C(=O)N[C@@H](CCCCN)C(=O)N[C@@H](CCCCN)C(=O)O [AP, (biotin)-RQPKIWFPNRRKPWKK (SEQ ID NO:1)—(OH)] (Biotin-RQPKIWFPNRRKPWKK-OH)
- increased levels of PY-STAT3 in the lungs ([1]; vs Control rats): ~5 fold
- Cav-2 expression in pulmonary arteries [2]: marked reductions
- RV/LV+septum weight ratio [4]: 30.6±0.6%
- RV systolic pressures [4]: 39.6±1.5 mmHg
- BW (body weight) [4]: 335 ± 7 g
- CVP (central venous pressure) [4]: 5.1 ± 0.3 mmHg
- Dry lung weight/BW [4]: 0.033 ± 0.001 %
- Dry/wet lung weight [4]: 19.7 ± 0.4%
- HR (heart rate) [4]: 274 ± 12 beats/min
- LV(+)dP/dt [4]: 6268 ± 339 mmHg/s
- LV(−)dP/dt [4]: 4319 ± 286 mmHg/s
- LV/BW [4]: 0.200 ± 0.004%
- LVEDP (LV-end diastolic pressure) [4]: 2.7 ± 0.3 mmHg
- MAP (mean arterial pressure) [4]: 85.3 ± 4.4 mmHg
- RV(+)dP/dt [4]: 1931 ± 78 mmHg/s
- RV(−)dP/dt [4]: 1395 ± 72 mmHg/s
- RV/BW [4]: 0.061 ± 0.002 %
- RVEDP (RV-end diastolic pressure) [4]: 5.1 ± 0.3 mmHg
- Wet lung weight/BW [4]: 0.170 ± 0.007 %
- increased percent medial wall thickness of pulmonary arteries ([5]; arteries <50 μm, 51-100 μm, 100-150 μm, vs Control rats): 2-3 fold
- decrease of Cav-1 protein levels in the lungs ([7]; vs Control rats): ~3 fold
- Cav-1 expression in pulmonary arteries [8]: marked reductions
- increase in cyclin D3 protein levels in the lungs ([9]; vs Control rats): ~4 fold
- increase in cyclin D1 protein levels in the lungs ([11]; vs Control rats): ~4 fold
- decrease of Cav-2 protein levels in the lungs ([12]; vs Control rats): ~2 fold
